Entries after “also recorded” stand apart in the source; their conditions may differ.

The source of these data is US12691097B2, “Methods and compositions for treating polyomavirus” (Brown University, priority 2022, dated 2026).

Data set [1] concerns ERK1/2. Description: endogenous ERK phosphorylation, with or without PMA. In kind it is cell-based.
The subject of data set [2] is PML. The data set can be described thus: administration to patients with or at risk of PML (Examples 1-6). In kind it is in vivo. The source says:
The patient's difficulty in walking is decreased. […] The patient's facial drooping is decreased. […] The patient's loss of vision is decreased. […] The patient's seizures are decreased. […].

The subject of data set [3] is JCPyV. Description: initial JCPyV infection in primary normal human astrocytes (NHA), indirect immunofluorescent quantification of viral proteins. In kind it is cell-based, JC polyomavirus. Conditions: pre-treatment.
Data set [4] has as its system JCPyV. The data set can be described thus: initial JCPyV infection in SVG-A glial cells, indirect immunofluorescent quantification of viral proteins. In kind it is cell-based, JC polyomavirus. Conditions: pre-treatment.
Data set [5] deals with JCPyV. The data set can be described thus: rescue of JCPyV infection by PMA cotreatment in SVG-A cells. It is filed as cell-based, JC polyomavirus. As to conditions: SVG-A cells cotreated with PMA and GW-5074.
The nature of data set [6]: cytotoxicity in SVG-A cells. It is filed as cell-based. As to conditions: human, read-out: 50% cytotoxic concentration (CC50).
Data set [7] has as its system human and simian polyomaviruses. Description: initial infection by human and simian polyomaviruses (FIG. 4). In kind it is cell-based.
The nature of data set [8]: cytotoxicity in NHA cells. It is filed as cell-based. Conditions: human, read-out: 50% cytotoxic concentration (CC50).
In data set [9] the test system is JCPyV. The data set can be described thus: JCPyV infection, cells not stated (FIG. 1, FIG. 2). It is filed as cell-based, JC polyomavirus.
The subject of data set [10] is JCPyV. Description: long-term cell-to-cell spread of JCPyV. It is filed as cell-based, JC polyomavirus. Conditions: introduced after establishment of a productive infection. An excerpt: SI50 values are important metrics in drug discovery, and an SI50 greater than 10 is commonly considered to be an important starting point in drug development.
The subject of data set [11] is JCPyV. Further details: unit not given beside the values. Conditions: cells not given; cited from earlier work.
The mark [12] stands for this setting: patient with early signs of PML.

Regarding `O=C1Nc2ccc(I)cc2C1=Cc1cc(Br)c(O)c(Br)c1` [GW-5074, 3-(3,5-dibromo-4-hydroxybenzylidene)-5-iodoindolin-2-one], the “endogenous ERK phosphorylation” value in [1] is “inhibits endogenous ERK1/2 phosphorylation; also recorded: inhibited endogenous ERK phosphorylation”. The “restoration of ERK activity” value in [1] (coincubation with PKC agonist PMA) was “ERK activity could not be restored”. The “development of PML” value in data set [2] (patient at risk for the development of PML) is reported as “does not develop PML”. Further, the difficulty in walking result in data set [2] (setting [12]) was “decreased”. For the same molecule, in data set [2] (setting [12]), the facial drooping entry is on record as “decreased”. Further, the loss of vision result in data set [2] (setting [12]) and in data set [2] (patient with mid-stage PML) was “decreased” each time. Besides, in data set [2] (patient with mid-stage PML), the seizures result is “decreased”. Moreover, the IC50 was found to be 0.84 µM in data set [3] (JC polyomavirus, Astrocyte, NHA cells, one round of productive infection, read-out: 50% inhibitory concentration (IC50)) and 6.8 µM in data set [4] (JC polyomavirus, SVG-A cells, one round of productive infection, read-out: 50% inhibitory concentration (IC50)). Moreover, the “initial JCPyV infection” value in [3] (primary normal human astrocytes, non-toxic concentrations) is recorded as “reduction of initial infection; also recorded: potently reduced initial JCPyV infection”; in data set [4] (SVG-A glial cells, non-toxic concentrations), “potently reduced initial JCPyV infection”; in data set [9] (FIG. 1, cells not stated), “reduction in initial JCPyV infection”. Further, the “rescue of JCPyV infection” value in data set [5] is “JCPyV infection could not be rescued”. Moreover, the CC50 is above 100 µM in [6] and above 20 µM in [8]. In addition, in [7], the “initial infection by human and simian polyomaviruses” value is reported as “reduction of initial infection”. The protective effect result in [9] (FIG. 2) was “protective effect”. In addition, the “long-term cell-to-cell spread of JCPyV” value in data set [10] is reported as “inhibition of viral spread; also recorded: inhibited long-term cell-to-cell spread of JCPyV”.
Consider `OC(c1cc(C(F)(F)F)nc2c(C(F)(F)F)cccc12)C1CCCCN1` (stereo not shown) [mefloquine], for which, in data set [11], the “SI50 of established compounds with anti-JCPyV activity” value (shortened to “SI50 of established compounds”) was 4.0.
Regarding `Cc1ccc(C2Nc3ccccc3C(=O)N2c2ccccc2)s1` (stereo not shown) [Retro-2^cycl], the “SI50 of established compounds” value in [11] was 7.4.
On to `CN(C)CCCN1c2ccccc2Sc2ccc(Cl)cc21` [chlorpromazine], for which the “SI50 of established compounds” value in [11] is on record as 2.0.
